One block for each molecule: values may come before it.
What was measured:
[1] = Pharmacokinetics of HIV protease inhibitors in rats, alone vs. in combination with ritonavir; type: in vivo; conditions: rat, po, 10 mg/kg; for AUC(0-t): read-out: AUC (0-8 h)
Method: Rats (male, Sprague-Dawley derived, 0.3-0.45 kg) were fasted overnight prior to dosing, but were permitted water ad libitum. […] The solutions, administered orally by gavage to a group of rats at a dose volume of 2 ml/kg, provided a 10 mg/kg dose of each compound. […] The plasma was separated from the red cells by centrifugation and frozen (−30° C.) until analysis. […] The peak plasma concentration (Cmax) and time to peak plasma concentration (Tmax) for each rat were obtained directly from the plasma concentration data. The area under the curve was calculated by the trapezoidal method over the time course of the study. The plasma elimination half life was obtained from NONLIN84 or from a log-linear regression of the terminal plasma concentrations as a function of time after dosing. Each combination was evaluated in a group containing at least three rats; the values reported are averages for each group of animals. The data obtained from the combination was compared to data obtained from a separate group of rats which received a single, separate dose of the compound under evaluation.

[2] = Pharmacokinetics of clarithromycin in humans, alone vs. in combination with ritonavir; type: in vivo; conditions: oral, healthy human volunteers, 500 mg every 12 hours, single agent, day four of dosing, plasma
Excerpt: Blood samples were collected on day four of dosing for HPLC determination of plasma concentrations of clarithromycin. Below in Table 2 are shown the results from the pharmacokinetic experiments with clarithromycin in humans.

[3] = male, Sprague-Dawley, plasma, oral gavage 10 mg/kg, compound administered as a single agent, plasma
[4] = male, Sprague-Dawley, plasma, oral gavage 10 mg/kg, compound administered as a single agent, plasma, read-out: Cmax
[5] = male, Sprague-Dawley, plasma, oral gavage 10 mg/kg, compound administered as a single agent, plasma, read-out: Tmax
[6] = male, Sprague-Dawley, plasma, oral gavage 10 mg/kg, dosed in combination with ritonavir 10 mg/kg, plasma
[7] = male, Sprague-Dawley, plasma, oral gavage 10 mg/kg, dosed in combination with ritonavir 10 mg/kg, plasma, read-out: Cmax
[8] = male, Sprague-Dawley, plasma, oral gavage 10 mg/kg, dosed in combination with ritonavir 10 mg/kg, plasma, read-out: Tmax

Structure (SMILES): CC(C)[C@H](NC(=O)N(C)Cc1ccccn1)C(=O)N[C@@H](Cc1ccccc1)[C@H](O)[C@H](O)[C@H](Cc1ccccc1)NC(=O)[C@@H](NC(=O)N(C)Cc1ccccn1)C(C)C [Compound A-77003, (2S,3R,4S,5S)-2,5-Di-(N-((N-methyl)-N-((2-pyridinyl)methyl)amino)carbonylvalinylamino)-3,4-dihydroxy-1,6-diphenyl hexane]
AUC(0-t) [1, 3]: 25 ng·h/mL
Cmax [1, 4]: 70 ng/mL
Tmax [1, 5]: 15 min
AUC(0-t) [1, 6]: 1390 ng·h/mL
Cmax [1, 7]: 960 ng/mL
Tmax [1, 8]: 40.2 min

Structure (SMILES): CC(C)CN(CC(O)C(Cc1ccccc1)NC(=O)OC1CCOC1)S(=O)(=O)c1ccc(N)cc1 (centres unmarked) [VX-478]
AUC(0-t) ([1]; male, Sprague-Dawley, in vivo, oral gavage 10 mg/kg, compound administered as a single agent, plasma): 1690 ng·h/mL
Cmax ([1]; male, Sprague-Dawley, in vivo, oral gavage 10 mg/kg, compound administered as a single agent, plasma, read-out: Cmax): 1610 ng/mL
Tmax ([1]; male, Sprague-Dawley, in vivo, oral gavage 10 mg/kg, compound administered as a single agent, plasma, read-out: Tmax): 25.2 min
AUC(0-t) ([1]; male, Sprague-Dawley, in vivo, oral gavage 10 mg/kg, dosed in combination with ritonavir 10 mg/kg, plasma): 13500 ng·h/mL
Cmax ([1]; male, Sprague-Dawley, in vivo, oral gavage 10 mg/kg, dosed in combination with ritonavir 10 mg/kg, plasma, read-out: Cmax): 2880 ng/mL
Tmax ([1]; male, Sprague-Dawley, in vivo, oral gavage 10 mg/kg, dosed in combination with ritonavir 10 mg/kg, plasma, read-out: Tmax): 90 min

Structure (SMILES): Cc1c(O)cccc1C(=O)NC(CSc1ccccc1)C(O)CN1CC2CCCCC2CC1C(=O)NC(C)(C)C (centres unmarked) [AG1343]
AUC(0-t) [1, 3]: 1140 ng·h/mL
Cmax [1, 4]: 400 ng/mL
Tmax [1, 5]: 45 min
AUC(0-t) [1, 6]: 11900 ng·h/mL
Cmax [1, 7]: 1810 ng/mL
Tmax [1, 8]: 240 min

More lines, now with the values ahead:

AUC (0-8 h) ([1]; in vivo): 1450 ng·h/mL
Cmax ([1]; in vivo): 2420 ng/mL
Tmax ([1]; in vivo): 15 min
Structure (SMILES): CC(C)[C@H](NC(=O)OCc1ccccn1)C(=O)N[C@@H](Cc1ccccc1)[C@@H](O)C[C@H](Cc1ccccc1)NC(=O)OCc1cccnc1 [Compound A-80987]

AUC (0-8 h) ([1]; male, Sprague-Dawley, in vivo): 29 ng·h/mL
Cmax ([1]; male, Sprague-Dawley, in vivo): 80 ng/mL
Tmax ([1]; male, Sprague-Dawley, in vivo): 10.8 min
Structure (SMILES): CC(C)(C)NC(=O)[C@@H]1C[C@@H]2CCCC[C@@H]2CN1C[C@@H](O)[C@H](Cc1ccccc1)NC(=O)[C@H](CC(N)=O)NC(=O)c1ccc2ccccc2n1 [Saquinavir, N-tert-butyl-decahydro-2-[2(R)-hydroxy-4-phenyl-3(S)-[[N-(2-quinolylcarbonyl)-L-asparaginyl]amino]butyl]-(4aS, 8aS)-isoquinoline-3(S)-carboxamide]

Cmax [2]: 3930 ng/mL
AUC(0-t) ([2]; read-out: AUC (0-24 h)): 49000 ng·h/mL
Structure (SMILES): CC[C@H]1OC(=O)[C@H](C)[C@@H](O[C@H]2C[C@@](C)(OC)[C@@H](O)[C@H](C)O2)[C@H](C)[C@@H](O[C@@H]2O[C@H](C)C[C@H](N(C)C)[C@H]2O)[C@](C)(OC)C[C@@H](C)C(=O)[C@H](C)[C@@H](O)[C@]1(C)O [clarithromycin]

AUC (0-8 h) ([1]; male, Sprague-Dawley, in vivo): 810 ng·h/mL
Tmax ([1]; male, Sprague-Dawley, in vivo): 30 min
Cmax ([1]; male, Sprague-Dawley, in vivo, Cmax): 1030 ng/mL
Structure (SMILES): CC(C)(C)NC(=O)[C@@H]1CN(Cc2cccnc2)CCN1C[C@@H](O)C[C@@H](Cc1ccccc1)C(=O)N[C@H]1c2ccccc2C[C@H]1O [MK-639, N-(2(R)-hydroxy-1 (S)-indanyl)-2(R)-phenylmethyl-4(S)-hydroxy-5-(1-(4-(3-pyridylmethyl)-2(S)-N′-(t-butylcarboxamido)-piperazinyl))-pentaneamide]

From patent US6703403B2, “Method for improving pharmacokinetics” (Abbott Laboratories, priority 1995, dated 2004)
